The text below walks through data of patent publication US20170166598A1, “HETEROARYL COMPOUNDS FOR KINASE INHIBITION” (ARIAD PHARMACEUTICALS, INC., priority 2014, published 2017).

Broadly, the IC50 is the midpoint of a concentration-inhibition curve.

What all share (format): cell-based
For experiment [1], the target named is T1, human EGFR exon 20 insertion ASV (V769_D770insASV) (Homo sapiens, UniProt P00533, INS769ASV).
T1 construct: expressed in transfected cells; host or cells: Ba/F3 (murine pro-B) cells transduced with lentivirus from pLVX-IRES puro
As to the kind of experiment: Ba/F3-EGFR-Exon20-ASV cell anti-proliferative assay (CellTiter 96 MTS, 72 h). The following applies: Ba/F3-EGFR-Exon20-ASV cells. The protocol:
An expression vector, pLVX-IRES puro (Clontech) coding for human EGFR exon 20 insertions NPG (H773_V774insNPG) or ASV (V769_D770insASV), was transfected into HEK293 cells by the Trans-Lentiviral ORF Packaging System (Thermo Scientific), to produce virus encoding EGFR exon 20 insertions. Ba/F3 (DSMZ) cells maintained in RPMI 1640 medium supplemented with 10% fetal bovine serum, 200 μM L-glutamine/l 200 μg/mL penicillin/200 μg/mL streptomycin (Life Technology) and 10 ng/mL IL-3 (R&D system), were infected by EGFR Exon20 virus and subsequently selected by puromycin (Life Technology) selection and IL-3 depletion. […] The anti-proliferative activity of compounds were determined as follows: BaF3-EGFR-Exon20 cells (NPG or ASV) seeded in 96 well plates (2500 cells/well) were treated with test compound (dissolved in DMSO) at a series of concentrations (4-fold dilution, top concentration: 10,000 nM). The plates were incubated for 72 h in a 37° C. incubator with 5% CO2, and the number of viable cells in each well were measured indirectly by CellTiter 96® Aqueous One Solution Cell Proliferation Assay (Promega) This assay is a colorimetric method for determining the number of viable cells through measurement of their metabolic activity by detection of enzymatic conversion of tetrazolium salts into blue formazan derivatives. Reagent (20 μL) was added into each well, and the plates were returned to the incubator for 2 h. The absorbance in each well was then measured at 490 nm using an Envision plate reader (Perkin Elmer).

Experiment [2] concerns the target T2, human EGFR exon 20 insertion NPG (H773_V774insNPG) (Homo sapiens, UniProt P00533, INS772GNP).
T2 construct: expressed in transfected cells; host or cells: Ba/F3 (murine pro-B) cells transduced with lentivirus from pLVX-IRES puro
Briefly: Ba/F3-EGFR-Exon20-NPG cell anti-proliferative assay (CellTiter 96 MTS, 72 h). Particulars: Ba/F3-EGFR-Exon20-NPG cells. The method, boiled down: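 Viable-cell readout used absorbance at 490 nm of MTS-derived formazan, 2 h after reagent addition, following 72 h compound treatment at 37 °C, 5% CO2. Cells: puromycin-selected, IL-3-depleted Ba/F3 expressing EGFR exon 20 ASV or NPG; dosing 4-fold series from 10,000 nM.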

Experiment [3] deals with T3, human EGFR E746-A750 deletion and T790M Mutation (Homo sapiens, UniProt P00533, DEL746-750/T790M).
T3 construct: expressed in transfected cells; host or cells: Ba/F3 (murine pro-B) cells transduced with lentivirus from pLVX-IRES puro
As to the kind of experiment: Ba/F3-EGFR-Del/T790M cell anti-proliferative assay (CellTiter 96 MTS, 72 h). Particulars: Ba/F3-EGFR-Del/T790M cells. The method, boiled down: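 Compound exposure: 72 h, 37 °C, 4-fold series topping at 10,000 nM. Target cells are Ba/F3 transduced with EGFR exon 19 deletion plus T790M, selected by puromycin and IL-3 withdrawal. Viable cell number inferred from MTS metabolic conversion, A490 read 2 h after reagent addition.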

Experiment [4] concerns the target T4, Her2 exon 20 YVMA insertion (A775_G776ins YVMA) (Homo sapiens, UniProt P04626, INS775YVMA).
T4 construct: expressed in transfected cells; host or cells: Ba/F3 (murine pro-B) cells transduced with lentivirus from pLVX-IRES puro
As to the kind of experiment: Ba/F3-Her2 Exon20 YVMA cell anti-proliferative assay (CellTiter 96 MTS, 72 h). Particulars: Ba/F3-Her2 Exon20 YVMA cells. Put shortly: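 Anti-proliferation: compound series (top 10,000 nM, 4-fold steps) was applied to Ba/F3-Her2 Exon20 YVMA cells grown without IL-3 for 72 h. Viability was read colorimetrically (CellTiter 96 Aqueous One, A490, 2 h reagent incubation).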

T2 sequence (P00533 with tags, fused parts or gaps INS772GNP): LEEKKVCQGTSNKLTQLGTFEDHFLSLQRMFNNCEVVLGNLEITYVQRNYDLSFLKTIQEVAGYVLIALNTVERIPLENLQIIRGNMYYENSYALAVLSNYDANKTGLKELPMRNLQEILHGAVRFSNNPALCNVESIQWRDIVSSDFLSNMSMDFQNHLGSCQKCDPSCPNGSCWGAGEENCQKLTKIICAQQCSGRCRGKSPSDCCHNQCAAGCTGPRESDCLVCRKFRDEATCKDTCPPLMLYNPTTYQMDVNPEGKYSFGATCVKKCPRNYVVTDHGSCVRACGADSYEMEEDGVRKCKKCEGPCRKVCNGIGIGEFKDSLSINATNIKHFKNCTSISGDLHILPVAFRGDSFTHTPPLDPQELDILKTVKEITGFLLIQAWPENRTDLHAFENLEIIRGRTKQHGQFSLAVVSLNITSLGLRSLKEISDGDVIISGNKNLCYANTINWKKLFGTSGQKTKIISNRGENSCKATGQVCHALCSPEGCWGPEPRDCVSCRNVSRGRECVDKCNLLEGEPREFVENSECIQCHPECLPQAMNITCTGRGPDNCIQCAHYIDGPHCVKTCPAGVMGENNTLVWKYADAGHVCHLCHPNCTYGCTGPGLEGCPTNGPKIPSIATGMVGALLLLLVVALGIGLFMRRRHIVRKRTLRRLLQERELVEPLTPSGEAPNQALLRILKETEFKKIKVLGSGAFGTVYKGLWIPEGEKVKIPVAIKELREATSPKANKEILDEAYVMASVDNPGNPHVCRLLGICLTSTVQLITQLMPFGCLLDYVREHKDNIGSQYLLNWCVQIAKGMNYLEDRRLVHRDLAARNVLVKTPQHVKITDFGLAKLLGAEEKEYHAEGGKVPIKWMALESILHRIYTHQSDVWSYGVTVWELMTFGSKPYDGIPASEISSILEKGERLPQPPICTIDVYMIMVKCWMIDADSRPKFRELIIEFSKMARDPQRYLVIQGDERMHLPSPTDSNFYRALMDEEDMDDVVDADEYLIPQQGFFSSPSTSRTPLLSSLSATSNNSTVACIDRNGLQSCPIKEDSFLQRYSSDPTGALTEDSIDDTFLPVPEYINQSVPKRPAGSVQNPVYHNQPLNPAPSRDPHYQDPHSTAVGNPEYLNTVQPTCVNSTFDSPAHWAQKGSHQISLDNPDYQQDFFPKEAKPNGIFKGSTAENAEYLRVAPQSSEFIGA
T3 sequence (P00533 with tags, fused parts or gaps DEL746-750/T790M): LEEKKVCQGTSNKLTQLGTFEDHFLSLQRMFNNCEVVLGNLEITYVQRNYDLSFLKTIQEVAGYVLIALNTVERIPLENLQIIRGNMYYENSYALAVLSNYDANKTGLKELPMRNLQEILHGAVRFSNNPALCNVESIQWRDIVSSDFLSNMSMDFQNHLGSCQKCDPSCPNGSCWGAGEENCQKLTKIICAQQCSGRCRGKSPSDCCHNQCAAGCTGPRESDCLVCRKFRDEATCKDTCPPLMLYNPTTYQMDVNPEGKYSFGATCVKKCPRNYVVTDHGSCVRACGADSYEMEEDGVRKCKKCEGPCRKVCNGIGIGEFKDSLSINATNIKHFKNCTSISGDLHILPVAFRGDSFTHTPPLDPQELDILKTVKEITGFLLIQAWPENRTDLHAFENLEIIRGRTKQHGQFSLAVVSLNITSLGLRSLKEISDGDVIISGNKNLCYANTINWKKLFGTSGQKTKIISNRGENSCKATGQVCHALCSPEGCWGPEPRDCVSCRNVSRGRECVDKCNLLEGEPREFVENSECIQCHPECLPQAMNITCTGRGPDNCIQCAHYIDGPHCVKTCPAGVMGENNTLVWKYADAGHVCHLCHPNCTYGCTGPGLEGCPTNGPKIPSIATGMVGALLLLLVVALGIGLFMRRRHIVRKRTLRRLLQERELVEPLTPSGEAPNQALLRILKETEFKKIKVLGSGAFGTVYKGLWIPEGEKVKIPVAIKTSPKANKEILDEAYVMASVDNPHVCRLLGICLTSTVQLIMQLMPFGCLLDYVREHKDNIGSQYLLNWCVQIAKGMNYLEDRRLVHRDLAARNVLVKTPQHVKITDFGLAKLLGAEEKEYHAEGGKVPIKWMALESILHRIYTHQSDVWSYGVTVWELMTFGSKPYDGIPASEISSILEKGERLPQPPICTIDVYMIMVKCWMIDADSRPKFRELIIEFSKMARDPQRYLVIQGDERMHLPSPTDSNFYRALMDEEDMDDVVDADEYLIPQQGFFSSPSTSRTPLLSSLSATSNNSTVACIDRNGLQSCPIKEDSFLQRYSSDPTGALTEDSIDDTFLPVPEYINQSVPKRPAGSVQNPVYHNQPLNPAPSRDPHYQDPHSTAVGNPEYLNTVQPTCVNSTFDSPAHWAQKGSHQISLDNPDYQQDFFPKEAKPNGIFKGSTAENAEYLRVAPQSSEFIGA
T4 sequence (P04626 with tags, fused parts or gaps INS775YVMA): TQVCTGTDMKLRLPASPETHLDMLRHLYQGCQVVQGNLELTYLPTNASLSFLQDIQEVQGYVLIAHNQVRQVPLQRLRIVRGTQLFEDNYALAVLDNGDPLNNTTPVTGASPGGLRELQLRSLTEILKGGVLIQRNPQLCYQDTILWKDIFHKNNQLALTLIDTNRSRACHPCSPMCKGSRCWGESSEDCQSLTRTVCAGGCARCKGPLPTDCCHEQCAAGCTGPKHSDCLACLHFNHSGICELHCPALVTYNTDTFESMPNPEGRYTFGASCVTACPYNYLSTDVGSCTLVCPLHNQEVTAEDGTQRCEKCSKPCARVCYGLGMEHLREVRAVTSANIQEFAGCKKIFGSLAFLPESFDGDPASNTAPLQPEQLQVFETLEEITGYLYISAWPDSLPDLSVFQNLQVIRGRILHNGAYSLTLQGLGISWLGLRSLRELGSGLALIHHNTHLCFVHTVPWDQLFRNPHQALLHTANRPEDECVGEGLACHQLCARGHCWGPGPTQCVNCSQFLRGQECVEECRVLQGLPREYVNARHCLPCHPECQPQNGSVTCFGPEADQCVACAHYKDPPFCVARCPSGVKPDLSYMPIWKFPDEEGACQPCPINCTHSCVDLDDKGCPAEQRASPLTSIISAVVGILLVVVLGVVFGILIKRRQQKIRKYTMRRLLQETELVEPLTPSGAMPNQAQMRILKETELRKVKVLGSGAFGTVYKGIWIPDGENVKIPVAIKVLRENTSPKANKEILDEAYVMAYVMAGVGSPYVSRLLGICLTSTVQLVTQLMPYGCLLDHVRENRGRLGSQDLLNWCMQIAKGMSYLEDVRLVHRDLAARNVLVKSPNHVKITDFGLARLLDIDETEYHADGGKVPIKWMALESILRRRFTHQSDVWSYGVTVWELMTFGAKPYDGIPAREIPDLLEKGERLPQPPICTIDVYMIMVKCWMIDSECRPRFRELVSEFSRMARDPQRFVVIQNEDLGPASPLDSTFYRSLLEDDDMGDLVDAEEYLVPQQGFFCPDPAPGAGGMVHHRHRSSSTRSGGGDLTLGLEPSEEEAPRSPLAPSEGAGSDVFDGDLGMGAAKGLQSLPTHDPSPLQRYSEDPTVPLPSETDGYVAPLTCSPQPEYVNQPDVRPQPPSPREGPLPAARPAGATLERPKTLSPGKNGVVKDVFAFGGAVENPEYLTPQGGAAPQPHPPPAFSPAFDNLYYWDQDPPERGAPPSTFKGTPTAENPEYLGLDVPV
T1 sequence (P00533 with tags, fused parts or gaps INS769ASV): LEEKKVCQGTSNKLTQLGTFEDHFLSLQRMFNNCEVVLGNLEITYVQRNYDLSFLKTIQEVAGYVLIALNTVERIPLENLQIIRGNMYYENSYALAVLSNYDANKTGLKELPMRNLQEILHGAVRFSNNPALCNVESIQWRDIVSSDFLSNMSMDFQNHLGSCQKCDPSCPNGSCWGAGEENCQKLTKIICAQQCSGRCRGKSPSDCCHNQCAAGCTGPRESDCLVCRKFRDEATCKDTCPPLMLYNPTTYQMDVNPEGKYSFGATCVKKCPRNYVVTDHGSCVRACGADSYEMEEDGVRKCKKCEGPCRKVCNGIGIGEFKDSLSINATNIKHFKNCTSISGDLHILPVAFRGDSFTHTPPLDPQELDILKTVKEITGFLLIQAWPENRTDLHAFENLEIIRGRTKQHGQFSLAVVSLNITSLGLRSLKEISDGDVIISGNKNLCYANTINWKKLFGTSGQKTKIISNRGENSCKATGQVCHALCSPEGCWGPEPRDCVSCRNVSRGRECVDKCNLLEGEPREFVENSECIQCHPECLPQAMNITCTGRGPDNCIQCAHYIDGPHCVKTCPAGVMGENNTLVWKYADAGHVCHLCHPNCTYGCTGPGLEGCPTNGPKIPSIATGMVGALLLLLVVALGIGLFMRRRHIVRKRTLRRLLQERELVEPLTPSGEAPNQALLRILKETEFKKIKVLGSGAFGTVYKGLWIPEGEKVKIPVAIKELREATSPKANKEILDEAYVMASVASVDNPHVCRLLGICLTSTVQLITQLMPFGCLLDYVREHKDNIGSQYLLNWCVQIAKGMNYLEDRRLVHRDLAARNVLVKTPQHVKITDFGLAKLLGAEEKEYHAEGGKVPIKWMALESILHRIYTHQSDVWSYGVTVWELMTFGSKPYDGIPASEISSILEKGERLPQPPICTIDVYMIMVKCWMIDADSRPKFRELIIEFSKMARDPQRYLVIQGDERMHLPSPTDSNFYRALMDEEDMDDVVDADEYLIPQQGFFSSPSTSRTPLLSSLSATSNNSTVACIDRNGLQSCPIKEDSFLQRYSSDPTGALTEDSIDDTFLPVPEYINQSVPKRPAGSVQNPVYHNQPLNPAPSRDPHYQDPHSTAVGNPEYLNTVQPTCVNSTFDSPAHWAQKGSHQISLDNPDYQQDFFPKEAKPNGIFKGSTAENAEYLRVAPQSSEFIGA

As to `C=CC(=O)Nc1cc(Nc2ncc(OC)c(-c3cn4c5c(cccc35)CCC4)n2)c(OC)cc1N(C)CCN(C)C` [Example 19, N-(5-((4-(5,6-dihydro-4H-pyrrolo[3,2,1-ij]quinolin-1-yl)-5-methoxypyrimidin-2-yl)amino)-2-((2-(dimethylamino)ethyl)(methyl)amino)-4-methoxyphenyl)acrylamide], the IC50 in experiment [1] was less than 100 nM; in experiment [2] it was less than 100 nM; in experiment [4], 100 to 500 nM. Further, in experiment [3], the “EGFR exon 19 deletion and exon 20 T790M mutation IC50” value is listed as “A (IC50 value for the indicated mutant below about 100 nM)”.
Regarding `C=CC(=O)Nc1cc(Nc2nccc(-c3c(-c4ncco4)n4c5c(cccc35)CCC4)n2)c(OC)cc1N(C)CCN(C)C` [Example 63, N-(2-((2-(dimethylamino)ethyl)(methyl)amino)-4-methoxy-5-((4-(2-(oxazol-2-yl)-5,6-dihydro-4H-pyrrolo[3,2,1-ij]quinolin-1-yl)pyrimidin-2-yl)amino)phenyl)acrylamide], the IC50 is 100 to 500 nM in experiment [1], less than 100 nM in experiment [2] and 500 to 1000 nM in experiment [4]. The “EGFR exon 19 deletion and exon 20 T790M mutation IC50” value in experiment [3] is reported as “A (IC50 value for the indicated mutant below about 100 nM)”.
Regarding `C=CC(=O)Nc1cc(Nc2nccc(-c3c(N4CCCC4)n4c5c(cccc35)CCC4)n2)c(OC)cc1N(C)CCN(C)C` [Example 93], the concentration for half-maximal inhibition (IC50) is less than 100 nM in experiment [1], less than 100 nM in experiment [2] and 100 to 500 nM in experiment [4]. In addition, the “EGFR exon 19 deletion and exon 20 T790M mutation IC50” value in experiment [3] was “A (IC50 value for the indicated mutant below about 100 nM)”.
Regarding `C=CC(=O)Nc1cc(Nc2nccc(-c3c(N4CCCC4=O)n4c5c(cccc35)CCC4)n2)c(OC)cc1N(C)CCN(C)C` [Example 72, N-(2-((2-(dimethylamino)ethyl)(methyl)amino)-4-methoxy-5-((4-(2-(2-oxopyrrolidin-1-yl)-5,6-dihydro-4H-pyrrolo[3,2,1-ij]quinolin-1-yl)pyrimidin-2-yl)amino)phenyl)acrylamide], the 50% inhibitory concentration (IC50) was less than 100 nM in experiment [1], less than 100 nM in experiment [2] and 100 to 500 nM in experiment [4]. For the same compound, the “EGFR exon 19 deletion and exon 20 T790M mutation IC50” value in experiment [3] is given as “A (IC50 value for the indicated mutant below about 100 nM)”.
With `C=CC(=O)Nc1cc(Nc2ncc(C(=O)NC)c(-c3nn4c5c(cccc35)OCC4)n2)c(OC)cc1N(C)CCN(C)C` [Example 67], the 50% inhibitory concentration (IC50) in experiment [1], in experiment [2] and in experiment [4] was more than 1000 nM throughout. The “EGFR exon 19 deletion and exon 20 T790M mutation IC50” value in experiment [3] was “D (IC50 value for the indicated mutant greater than about 1 μM)”.
For `C=CC(=O)Nc1cc(Nc2ncc(C(O)CC)c(-c3cn4c5c(cccc35)CCC4)n2)c(OC)cc1N(C)CCN(C)C` (stereo not drawn) [Example 73, N-(5-((4-(5,6-dihydro-4H-pyrrolo[3,2,1-ij]quinolin-1-yl)-5-(1-hydroxypropyl)pyrimidin-2-yl)amino)-2-((2-(dimethylamino)ethyl)-(methyl)amino)-4-methoxyphenyl)acrylamide], the IC50 in experiment [1] was less than 100 nM; in experiment [2], less than 100 nM; in experiment [4], 100 to 500 nM. Besides, the “EGFR exon 19 deletion and exon 20 T790M mutation IC50” value in experiment [3] is reported as “A (IC50 value for the indicated mutant below about 100 nM)”.
`C=CC(=O)Nc1cc(Nc2nccc(-c3c(N4CCC(F)C4)n4c5c(cccc35)CCC4)n2)c(OC)cc1N(C)CCN(C)C` (stereo not drawn) [Example 92]: the half-maximal inhibitory concentration (IC50) in experiment [1] was less than 100 nM; in experiment [2], less than 100 nM; in experiment [4], 100 to 500 nM. Moreover, the “EGFR exon 19 deletion and exon 20 T790M mutation IC50” value in experiment [3] is given as “A (IC50 value for the indicated mutant below about 100 nM)”.
Consider `C=CC(=O)Nc1cc(Nc2ncc(C#N)c(-c3cn4c5c(cccc35)OCC4)n2)c(OC)cc1N1CC[C@@H](N(C)C)C1` [Example 5, (R)-N-(5-((5-cyano-4-(2,3-dihydro-[1,4]oxazino[2,3,4-hi]indol-6-yl)pyrimidin-2-yl)amino)-2-(3-(dimethylamino)pyrrolidin-1-yl)-4-methoxyphenyl)acrylamide], for which the IC50 in experiment [1] is less than 100 nM; in experiment [2] it was less than 100 nM; in experiment [4], 100 to 500 nM. For the same compound, the “EGFR exon 19 deletion and exon 20 T790M mutation IC50” value in experiment [3] is reported as “A (IC50 value for the indicated mutant below about 100 nM)”.
`C=CC(=O)Nc1cc(Nc2ncc(CCC3CCCC3)c(-c3cn4c5c(cccc35)CCC4)n2)c(OC)cc1N(C)CCN(C)C` [Example 35]: the IC50 in experiment [1] was 500 to 1000 nM; in experiment [2], 100 to 500 nM; in experiment [4], 500 to 1000 nM. In addition, the “EGFR exon 19 deletion and exon 20 T790M mutation IC50” value in experiment [3] was “C (IC50 value for the indicated mutant between greater than about 500 to about 1 μM)”.
For `C=CC(=O)Nc1cc(Nc2ncc(Cl)c(-c3cn4c5c(cccc35)OCC4)n2)c(OC)cc1N(C)C1CCN(C)C1` (stereo not drawn) [Example 9, N-(5-((5-chloro-4-(2,3-dihydro-[1,4]oxazino[2,3,4-hi]indol-6-yl)pyrimidin-2-yl)amino)-4-methoxy-2-(methyl(1-methylpyrrolidin-3-yl)amino)phenyl)acrylamide], the IC50 is 100 to 500 nM in experiment [1], less than 100 nM in experiment [2] and 500 to 1000 nM in experiment [4]. Further, in experiment [3], the “EGFR exon 19 deletion and exon 20 T790M mutation IC50” value is listed as “A (IC50 value for the indicated mutant below about 100 nM)”.
Take `C=CC(=O)Nc1cc(Nc2nccc(-c3c(N4CCC(OC)C4)n4c5c(cccc35)CCC4)n2)c(OC)cc1N(C)CCN(C)C` (stereo not drawn) [Example 90]: the half-maximal inhibitory concentration (IC50) in experiment [1] was 100 to 500 nM; in experiment [2], less than 100 nM; in experiment [4], 100 to 500 nM. Besides, in experiment [3], the “EGFR exon 19 deletion and exon 20 T790M mutation IC50” value is recorded as “A (IC50 value for the indicated mutant below about 100 nM)”.
Regarding `C=CC(=O)Nc1cc(Nc2ncc(OCC#N)c(-c3cn4c5c(cccc35)CCC4)n2)c(OC)cc1N(C)CCN(C)C` [Example 50, N-(5-((5-(cyanomethoxy)-4-(5,6-dihydro-4H-pyrrolo[3,2,1-ij]quinolin-1-yl)pyrimidin-2-yl)amino)-2-((2-(dimethylamino)ethyl)(methyl)amino)-4-methoxyphenyl)acrylamide], the half-maximal inhibitory concentration (IC50) in experiment [1], in experiment [2] and in experiment [4] was less than 100 nM in each case. The “EGFR exon 19 deletion and exon 20 T790M mutation IC50” value in experiment [3] is listed as “A (IC50 value for the indicated mutant below about 100 nM)”.
As to `C#Cc1cnc(Nc2cc(NC(=O)C=C)c(N(C)CCN(C)C)cc2OC)nc1-c1cn2c3c(cccc13)CCC2` [Example 31, N-(5-((4-(5,6-dihydro-4H-pyrrolo[3,2,1-ij]quinolin-1-yl)-5-ethynylpyrimidin-2-yl)amino)-2-((2-(dimethylamino)ethyl)(methyl)amino)-4-methoxyphenyl)acrylamide], the IC50 in experiment [1], in experiment [2] and in experiment [4] was less than 100 nM each time. Further, the “EGFR exon 19 deletion and exon 20 T790M mutation IC50” value in experiment [3] is “A (IC50 value for the indicated mutant below about 100 nM)”.
In the case of `COc1cc(F)c(NC(=O)/C=C/CN(C)C)cc1Nc1ncc(Cl)c(-c2cn3c4c(cccc24)OCC3)n1` [Example 82, (E)-N-(5-((5-chloro-4-(2,3-dihydro-[1,4]oxazino[2,3,4-hi]indol-6-yl)pyrimidin-2-yl)amino)-2-fluoro-4-methoxyphenyl)-4-(dimethylamino)but-2-enamide], the IC50 in experiment [1] was 500 to 1000 nM; in experiment [2] it was 100 to 500 nM; in experiment [4], more than 1000 nM. Further, the “EGFR exon 19 deletion and exon 20 T790M mutation IC50” value in experiment [3] is listed as “A (IC50 value for the indicated mutant below about 100 nM)”.
Turning to `C=CC(=O)Nc1cc(Nc2ncc(-c3cn[nH]c3)c(-c3cn4c5c(cccc35)CCC4)n2)c(OC)cc1N(C)CCN(C)C` [Example 85, N-(5-((4-(5,6-dihydro-4H-pyrrolo[3,2,1-ij]quinolin-1-yl)-5-(1H-pyrazol-4-yl)pyrimidin-2-yl)amino)-2-((2-(dimethylamino)ethyl)(methyl)amino)-4-methoxyphenyl)acrylamide], the IC50 in experiment [1], in experiment [2] and in experiment [4] was less than 100 nM each time. Besides, the “EGFR exon 19 deletion and exon 20 T790M mutation IC50” value in experiment [3] is given as “A (IC50 value for the indicated mutant below about 100 nM)”.
